# System: brainstem
# Assay: Test of the effect of oral methylphenidate on evoked averaged brainstem response in a patient with ADHD
# Assay type: in vivo, human
# Experimental: To emphasize the importance of using the subject as its own reference when conducting herein described tests, FIG. 8a-c is showing a test of the effect of oral methylphenidate medication in a patient with ADHD. In this test each of the train of sound pulses will repeatedly present sound pulses to the patient for thirty seconds and for each sound pulse presented to the subject a corresponding response signal is recorded. The response signal for each set of train of sound pulses is then averaged to obtain an evoked averaged brainstem response.
# In FIG. 8a, a measuring with only unmodified sound pulses, i.e. the sound stimuli comprising only one train being a train of unmodified sound pulses 72. Sound stimuli were presented twice to the subject (at t0+0 and t0+60 sec) and the corresponding response signals were recorded and evoked averaged brainstem responses were established 74a, 74b. This was done when the patient was not under influence of methylphenidate medication, i.e. baseline or control state. The measured variable is here an absolute value 70 measured in μV of the amplitude of peak III. […] Both times the corresponding response signals were recorded and evoked averaged brainstem responses were established 74c, 74d.
# In FIG. 8b, a measuring with only modified sound pulses, i.e. the sound stimuli comprising only one train being a train of modified sound pulses 73. Sound stimuli were presented twice to the subject (at t0+0 and t0+60 sec) and the corresponding response signals were recorded and evoked averaged brainstem responses were established 75a, 75b. This was done when the patient was not under influence of methylphenidate medication, i.e. baseline or control state. The measured variable is here an absolute value 71 measured in NV of the amplitude of peak III. […] Both times the corresponding response signals were recorded and evoked averaged brainstem responses were established 75c, 75d. […]
smiles,measurement,setting,value
COC(=O)C(c1ccccc1)C1CCCCN1 (stereo not drawn) [methylphenidate],"methylphenidate effect on amplitude of peak III (absolute value), only modified sound pulses","single train of modified sound pulses, t1+0 and t1+60 sec vs drug-free baseline, FIG. 8b",no detectable methylphenidate effect could be established
same,"methylphenidate effect on amplitude of peak III (absolute value), only unmodified sound pulses","single train of unmodified sound pulses, t1+0 and t1+60 sec vs drug-free baseline, FIG. 8a",no detectable methylphenidate effect could be established
same,methylphenidate effect on relative measure (modified train averaged evoked brainstem response as a percentage of the unmodified average evoked response),"unmodified train followed by modified train, compared at t1+60 sec and t1+120 sec vs drug-free baseline, FIG. 8c",detectable methylphenidate effect could be seen
